Laboratory results taken from patent US20200010479A1, “INHIBITORS OF MICROBIAL BETA-GLUCURONIDASE ENZYMES AND USES THEREOF” (THE UNIVERSITY OF NORTH CAROLINA AT CHAPEL HILL, priority 2017, published 2020).
Entries after “also recorded” stand apart in the source; their conditions may differ. Where two headings read alike, the source gives them in different places.

Experiments:
SUM149 cells [1] = test: SUM149 triple negative breast cancer xenograft in athymic nude mice
E. eligens GUS = test: SN-38-G processing by purified GUS enzymes, with inhibitors; assay type: biochemical, Eubacterium eligens; settings: purified L1 enzyme, in vitro
[2] = tested on: panel of purified GUS enzymes present in the human gut microbiota; test: SN-38-G processing by panel of purified GUS enzymes, with inhibitors; assay type: biochemical; settings: comparison of inhibitors over the panel
E. coli GUS [3] = target: T1, E. coli GUS (Escherichia coli, UniProt P05804); test: In vitro EcGUS inhibition, cleavage of PNPG by purified E. coli GUS; assay type: biochemical; settings: PNPG substrate, 37° C., 2 hours
Method: To assess GUS inhibition, cleavage of p-nitrophenyl-β-D-glucuronide (PNPG) by purified E. coli GUS in the presence of inhibitor was measured. The reaction was performed in 96-well clear-bottom plates at a volume of 50 μL. Each reaction contained 5 μL of 100 nM E. coli GUS, 5 μL of inhibitor at various concentrations, 10 μL of 250 mM HEPES and 250 mM NaCl assay buffer, and 30 μL of 1.5 mM PNPG. The reaction was initiated by addition of PNPG and incubated at 37° C. for 2 hours. End point absorbance values at 410 nm were measured using a PHERAstar Plus microplate reader. The resulting data were fit with a four-parameter logistic log function in SigmaPlot 13.0 to determine IC50 values. IC50 was defined as the concentration of inhibitor that yields a 50% reduction in product formation at equilibrium.

C3-Tag mammary tumors [4] = test: C3-Tag genetically engineered mouse model (GEMM) of triple-negative breast cancer; settings: for number of tumors observed in the animals: between treatment groups
[5] = tested on: gut microbial GUS proteins; test: SN-38-G processing by in fimo samples (enzyme mixtures from intestinal contents); assay type: biochemical, naïve FVB mice
Description: To examine the activity of a more relevant sample of gut microbial GUS proteins, intestinal contents from naïve FVB mice in SPF conditions were obtained. […] As used herein, the ex vivo intestinal samples examined scientifically are to be termed “in fimo” from “fimus”, used by […] and in formal Latin to mean “excrement”. […] FIGS. 14A and 14B). […] FIGS. 14A and 14B).

[6] = target: T2, Mini-Loop 1 (mL1) GUS from Bacteroides fragilis (Bacteroides fragilis, UniProt Q5LIC7); assay type: biochemical; settings: purified mL1 enzyme, in vitro
T2 construct: made in house

[7] = tested on: Loop 2 (L2) enzyme from Bacteroides uniformis; test: SN-38-G processing by purified GUS enzymes, with inhibitors; assay type: biochemical; settings: in vitro
S. agalactiae GUS = target: T3, S. agalactiae GUS (Streptococcus agalactiae serotype V, UniProt Q8E0N2); assay type: biochemical; settings: purified L1 enzyme, in vitro
T3 construct: made in house

E. coli GUS [8] = target: T1, E. coli GUS; assay type: biochemical; settings: purified L1 enzyme, in vitro
C. perfringens GUS = C. perfringens GUS (Clostridium perfringens, UniProt Q8XP19); assay type: biochemical
[9] = tested on: murine intestinal epithelium; test: Time-course of gut damage after a single treatment in FVB mice; assay type: in vivo, female FVB mice
Method: It has been previously reported that irinotecan induces apoptosis and reduces the number of mitotic structures in the rat intestinal epithelium (Takasuna 1996). To assess whether Inh9 impacts cell proliferation in the murine intestinal epithelium, we undertook two time-course studies. Four groups of age-, weight- and litter-matched female FVB mice were treated with a single treatment of vehicle, Inh9 (1 mg/kg p.o.), irinotecan (50 mg/kg i.p.) or irinotecan and Inh9. One set of animals were euthanized after 24 hours, and a second set after 120 hours. To assess overall effects on the animals, changes in body weight, spleen mass and hematocrit were measured. In the GI tract, levels of apoptotic cells and proliferative cells were measured and epithelial samples were examined by H&E staining.
Thus, at five days, Inh9 appears to protect this measure of animal health. […] As such, the protection afforded at 24 hours by Inh9 is sufficient to improve subsequent gut epithelial outcomes in mice several days after administration.

gut microbiota [10] = test: Gut microbiota composition in C3Tag GEMM animals; assay type: in vivo, C3Tag GEMM mice; settings: for composition of the gut microbiota: mice with intact immune system
Description: Finally, we examined the effects of irinotecan and GUS inhibitor on the composition of the gut microbiota in […] triple-negative breast cancer GEMM animals. […] While the vehicle and Inh9 treatment groups appeared similar by PCoA1 analysis, both the irinotecan and IRI+Inh9 groups were similar to each other and distinct from the non-irinotecan mice (FIG. 22C). However, unlike the xenograft mice, irinotecan induces much smaller changes in the composition of the gut microbiota in these GEMM animals. […] These changes were not as dramatic as those observed with the athymic Sum149 xenograft mice presented above. […] In these GEMM animals, though, no change in Enterobacteriaceae or other Gammaproteobacteria families was observed; thus, the taxa that drive the increases in Proteobacteria are not known in these immune-competent mice.

gut microbial enzymes = test: SN-38-G reactivation in fimo samples after treatment of FVB mice; assay type: in vivo; settings: for effects on SN-38-G reactivation by in fimo samples: samples collected at 120 hours; for SN-38-G processing activity in the mouse cecum (in fimo samples): single agent, samples collected after 24 hours
Method: The FVB mice were treated with irinotecan, the Inh9, or both irinotecan and Inh9, and it was determined how these treatments affected SN-38-G reactivation in fimo samples collected after 24 hours. […] A similar study was conducted in which samples were collected at 120 hours; at this five-day timepoint, no difference was found between the four treatment groups (data not shown).

gut microbiota [11] = test: 16S rRNA metataxonomic analysis of luminal contents, athymic Sum149 xenograft mice; assay type: in vivo
Method: A metataxonomic analysis was performed of the luminal contents of athymic mice bearing Sum149 triple-negative breast cancer xenograft tumors by sequencing the V3-V4 region of the bacterial 16s rRNA gene. […] Gut microbial diversity is associated with animal and human health, while reduced diversity is associated with disease in both model organisms and humans (REFs). Thus, Inh9 blunts the negative effects of irinotecan on gut microbial diversity in athymic tumor xenograft mice, and is capable of increases species richness in these animals.
At the phylum level, the lumenal contents of vehicle-treated mice contained 50% Bacteroidetes, 42% Firmicutes, and 4% Proteobacteria (FIG. 22B). […] Thus, in immune-deficient mice, Inh9 markedly protects gut microbial composition in athymic mice, increasing diversity and reducing irinotecan-induced increases in Proteobacteria.

C3-Tag mammary tumors [12] = settings: mouse, in vivo
SUM149 cells [13] = settings: athymic nude, mouse, in vivo, 5 days
[14] = therapeutically-relevant doses; cited from earlier work
[15] = tested on: gut microbial GUS enzymes; settings: irinotecan alone; cited from earlier work
[16] = irinotecan and Inh9 vs irinotecan alone
[17] = Inh9 co-treatment with irinotecan, 24 hours
[18] = irinotecan plus Inh9 vs irinotecan alone, 120 hours

T1 sequence (P05804 whole entry): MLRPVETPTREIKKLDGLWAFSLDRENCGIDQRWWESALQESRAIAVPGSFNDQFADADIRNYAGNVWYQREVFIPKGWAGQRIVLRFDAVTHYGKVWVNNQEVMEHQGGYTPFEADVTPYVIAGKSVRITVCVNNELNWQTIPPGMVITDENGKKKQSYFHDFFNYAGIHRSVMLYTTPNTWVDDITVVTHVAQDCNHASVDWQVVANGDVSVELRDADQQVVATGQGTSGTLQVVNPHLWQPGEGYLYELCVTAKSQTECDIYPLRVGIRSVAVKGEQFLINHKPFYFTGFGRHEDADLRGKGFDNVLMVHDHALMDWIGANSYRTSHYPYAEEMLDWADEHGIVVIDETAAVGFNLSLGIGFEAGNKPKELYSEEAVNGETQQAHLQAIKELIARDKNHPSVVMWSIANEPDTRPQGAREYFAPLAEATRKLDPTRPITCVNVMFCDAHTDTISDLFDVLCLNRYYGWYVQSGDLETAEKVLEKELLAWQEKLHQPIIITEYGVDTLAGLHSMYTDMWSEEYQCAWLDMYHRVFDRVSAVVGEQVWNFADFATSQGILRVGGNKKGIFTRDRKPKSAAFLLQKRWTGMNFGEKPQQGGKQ
C. perfringens GUS, sequence (Q8XP19 whole entry, looked up): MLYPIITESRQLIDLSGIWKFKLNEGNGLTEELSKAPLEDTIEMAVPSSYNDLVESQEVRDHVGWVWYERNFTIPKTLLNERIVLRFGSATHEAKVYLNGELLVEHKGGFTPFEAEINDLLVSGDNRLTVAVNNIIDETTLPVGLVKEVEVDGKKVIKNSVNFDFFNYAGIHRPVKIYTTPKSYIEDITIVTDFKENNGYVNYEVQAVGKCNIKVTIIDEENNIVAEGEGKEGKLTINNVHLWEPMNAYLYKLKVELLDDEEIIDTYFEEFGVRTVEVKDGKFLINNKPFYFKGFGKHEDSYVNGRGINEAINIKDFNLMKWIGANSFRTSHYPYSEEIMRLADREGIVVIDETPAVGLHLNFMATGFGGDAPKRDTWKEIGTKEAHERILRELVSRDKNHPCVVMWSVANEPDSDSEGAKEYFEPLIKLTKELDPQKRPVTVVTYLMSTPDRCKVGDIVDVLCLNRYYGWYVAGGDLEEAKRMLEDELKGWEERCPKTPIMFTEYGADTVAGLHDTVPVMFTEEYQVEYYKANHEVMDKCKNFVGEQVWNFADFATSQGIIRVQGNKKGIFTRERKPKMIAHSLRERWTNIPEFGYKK
T2 sequence (Q5LIC7 whole entry): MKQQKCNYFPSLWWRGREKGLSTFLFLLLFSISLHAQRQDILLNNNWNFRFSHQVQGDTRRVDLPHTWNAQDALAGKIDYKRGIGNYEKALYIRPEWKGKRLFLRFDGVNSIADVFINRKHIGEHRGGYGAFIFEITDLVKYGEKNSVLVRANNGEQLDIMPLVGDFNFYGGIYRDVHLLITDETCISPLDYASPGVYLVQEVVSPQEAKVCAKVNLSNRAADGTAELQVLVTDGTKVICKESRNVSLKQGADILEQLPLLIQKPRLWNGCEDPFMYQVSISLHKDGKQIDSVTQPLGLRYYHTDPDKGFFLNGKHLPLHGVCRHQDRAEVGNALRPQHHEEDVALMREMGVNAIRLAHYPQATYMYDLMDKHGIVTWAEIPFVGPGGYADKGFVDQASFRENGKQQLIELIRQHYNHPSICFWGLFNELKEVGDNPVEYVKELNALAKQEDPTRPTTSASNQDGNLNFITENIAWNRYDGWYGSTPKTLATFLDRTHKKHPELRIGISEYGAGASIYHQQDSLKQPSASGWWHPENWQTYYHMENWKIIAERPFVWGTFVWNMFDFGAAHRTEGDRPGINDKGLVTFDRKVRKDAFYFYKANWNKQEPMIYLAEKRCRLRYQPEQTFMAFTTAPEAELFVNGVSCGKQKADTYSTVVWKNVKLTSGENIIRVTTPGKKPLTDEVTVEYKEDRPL
T3 sequence (Q8E0N2 whole entry): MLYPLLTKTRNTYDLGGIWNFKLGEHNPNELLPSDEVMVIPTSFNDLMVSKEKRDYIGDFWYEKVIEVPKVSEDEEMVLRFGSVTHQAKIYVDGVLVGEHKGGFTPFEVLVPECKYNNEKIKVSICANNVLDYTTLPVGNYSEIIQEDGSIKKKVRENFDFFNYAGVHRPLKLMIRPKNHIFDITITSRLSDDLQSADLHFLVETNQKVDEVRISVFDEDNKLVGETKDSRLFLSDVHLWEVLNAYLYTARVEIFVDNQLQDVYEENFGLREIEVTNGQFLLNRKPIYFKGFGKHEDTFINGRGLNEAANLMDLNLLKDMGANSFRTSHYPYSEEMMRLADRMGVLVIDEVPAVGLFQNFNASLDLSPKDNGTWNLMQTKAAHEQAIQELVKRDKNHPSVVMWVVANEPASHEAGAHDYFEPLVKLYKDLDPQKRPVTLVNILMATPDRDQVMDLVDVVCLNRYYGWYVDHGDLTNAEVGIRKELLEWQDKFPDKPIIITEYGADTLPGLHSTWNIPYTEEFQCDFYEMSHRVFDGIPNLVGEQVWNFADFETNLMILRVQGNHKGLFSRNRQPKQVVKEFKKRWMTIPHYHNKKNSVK

C1CCc2c(c(N3CCOCC3)nc3sc4c(N5CCNCC5)nnnc4c23)C1 [Inh9]
post-sacrifice colon histological examination (SUM149 cells [1]; Inh9 with irinotecan): marked protection
diarrhea (SUM149 cells [1]; [16]): significantly less diarrhea
irinotecan-induced weight loss / body weight (SUM149 cells [1]; [16]): significant improvement; also recorded: significantly protected
survival (SUM149 cells [1]; [16]): slightly improved overall survival; also recorded: trended toward living longer
terminal tumor masses (SUM149 cells [1]; irinotecan-plus-Inh9): significantly reduced
tumor volumes (SUM149 cells [1]; irinotecan-plus-Inh9 compared to vehicle and Inh9 cohorts): significantly reduced
inhibition of SN-38-G processing (apparent kcat) (E. eligens GUS): efficiently reduced
inhibiting GUS-mediated reactivation of SN-38-G in vitro [2]: superior to Inh1
IC50 (E. coli GUS [3]): 380 nM
colon tissue, H&E staining (C3-Tag mammary tumors [4]; IRI+Inh9): maintained a properly assembled colonic glandular structure
day to which the study could continue (C3-Tag mammary tumors [4]; IRI+Inh9): 49 days
primary tumor as share of body weight (C3-Tag mammary tumors [4]; IRI+Inh9): below 1%
primary tumor mass upon sacrifice (C3-Tag mammary tumors [4]; IRI+Inh9): less than 100 mg
time some animals remained diarrhea-free (C3-Tag mammary tumors [4]; IRI+Inh9): 42 days
body weight over the course of the study (C3-Tag mammary tumors [4]; IRI+Inh9, after the first 21 days): rebounded and recovered their lost weight
survival longer than IRI (Kaplan-Meier) (C3-Tag mammary tumors [4]; IRI+Inh9 vs IRI): 43%
number of doses of irinotecan received (C3-Tag mammary tumors [4]; IRI+Inh9 vs IRI alone): significantly higher number of IRI doses; also recorded: more doses of irinotecan
survival longer than Veh and Inh9 (Kaplan-Meier) (C3-Tag mammary tumors [4]; IRI+Inh9 vs Veh and Inh9): 29%
diarrhea (C3-Tag mammary tumors [4]; IRI+Inh9 vs irinotecan alone): significantly reduced diarrhea
diarrhea (C3-Tag mammary tumors [4]; Inh9 alone): did not develop diarrhea
time followed until tumor size necessitated euthanasia (C3-Tag mammary tumors [4]; Inh9 alone (as vehicle)): 70 to 80 days
extension of overall survival of irinotecan-treated mice (C3-Tag mammary tumors [4]; Inh9 co-treatment): 14 days
number of tumors observed in the animals (C3-Tag mammary tumors [4]): did not differ
tumor volumes measured during the study (C3-Tag mammary tumors [4]; irinotecan plus GUS inhibition): significantly smaller tumors
body weight over the course of the study (C3-Tag mammary tumors [4]; single agent): gained weight
colon tissue, H&E staining (C3-Tag mammary tumors [4]; single agent): healthy colonic histology
primary tumor as share of body weight (C3-Tag mammary tumors [4]; single agent): more than 5%
primary tumor mass upon sacrifice (C3-Tag mammary tumors [4]; single agent): 1.5 g
tumor volumes measured during the study (C3-Tag mammary tumors [4]; single agent): reduced tumor volumes
tumor number and relative mass (FIG. 9) (C3-Tag mammary tumors [4]; with Inh9): significant reduction
SN-38-G reactivation by cecal contents ([5]; Inh9 at 50 and 100 μM): dose-dependent; also recorded: significantly reduce
reducing SN-38-G processing in fimo ([5]; cecum, proximal and distal colon samples, comparison of inhibitors): superior to Inh1
inhibition of SN-38-G processing [6]: did not inhibit
inhibition of SN-38-G processing [7]: did not inhibit
inhibition of SN-38-G processing (apparent kcat) (S. agalactiae GUS): efficiently reduced
inhibition of SN-38-G processing (apparent kcat) (E. coli GUS [8]): efficiently reduced
inhibition of SN-38-G processing (apparent kcat) (C. perfringens GUS): efficiently reduced
acute toxicity after single IRI injection [9, 17]: modestly reduces
apoptotic cells per crypt [9, 17]: modest protection
apoptotic cells per crypt ([9]; Inh9 co-treatment with irinotecan, 120 hours): modest protection
numbers of proliferative cells in the GI tract (BrdU) ([9]; between treatment groups, 24 hours): no change
number of proliferative cells per crypt in ileum, proximal colon and distal colon ([9]; co-treatment of irinotecan with Inh9, 120 hours): significantly increased
body weight or spleen mass [9, 18]: no changes
hematocrit [9, 18]: significant increase
composition of the gut microbiota (gut microbiota [10]): does not change
level of SN-38-G reactivation by in fimo samples (gut microbial enzymes; Inh9 plus irinotecan compared to irinotecan alone, 24 hours): significantly reduced
effects on SN-38-G reactivation by in fimo samples (gut microbial enzymes): no longer detected
SN-38-G processing activity in the mouse cecum (in fimo samples) (gut microbial enzymes): did not alter
reduction of the levels of Proteobacteria compared to vehicle (gut microbiota [11]; GUS inhibitor alone): more than 10 fold
species diversity, Chao1 richness (gut microbiota [11]; IRI+Inh9): maintained species diversity
Bacteroidetes in lumenal contents, phylum level (gut microbiota [11]; irinotecan and Inh9): 42%
Firmicutes in lumenal contents, phylum level (gut microbiota [11]; irinotecan and Inh9): 43%
Proteobacteria in lumenal contents, phylum level (gut microbiota [11]; irinotecan and Inh9): 13%
Proteobacteria in lumenal contents, phylum level (gut microbiota [11]; single agent): 0.3%
species diversity, Chao1 richness (gut microbiota [11]; single agent): uniformly maximized species richness

CCc1c2c(nc3ccc(OC(=O)N4CCC(N5CCCCC5)CC4)cc13)-c1cc3c(c(=O)n1C2)COC(=O)[C@]3(O)CC [irinotecan, (S)-4,11-diethyl-3,4,12,14-tetrahydro-4-hydroxy-3,14-dioxo1H-pyrano[3′,4′:6,7]-indolizino[1,2-b]quinolin-9-yl-[1,4′bipiperidine]-1′-carboxylate, reference compound]
time to early-onset diarrhea (SUM149 cells [1]; both irinotecan treatment groups): ≤ 12 h
time until the entire cohort required euthanasia (SUM149 cells [1]; irinotecan alone, following the first treatment): 10 days
post-sacrifice colon histological examination (SUM149 cells [1]; single agent): dramatic irinotecan-induced epithelial damage
terminal tumor masses (SUM149 cells [1]; single agent): significantly reduced
number of tumors observed in the animals (C3-Tag mammary tumors [4]): did not differ
time until euthanasia was required for all animals (C3-Tag mammary tumors [4]; irinotecan alone, after the initiation of therapy): 28 days
primary tumor as share of body weight (C3-Tag mammary tumors [4]; single agent): 3%
primary tumor mass upon sacrifice (C3-Tag mammary tumors [4]; single agent): ~1 g
time within which all animals developed diarrhea (C3-Tag mammary tumors [12]; female, C3-Tag (strain of origin FVB/N)): ≤ 14 days
body weight over the course of the study (C3-Tag mammary tumors [12]): consistently lost weight
colon tissue, H&E staining (C3-Tag mammary tumors [12]): almost completely destroyed glandular structure
time to apoptotic crypt damage in the murine small intestine ([9]; irinotecan): ≤ 24 h
spleen mass ([9]; single IRI injection, five days): unchanged
body mass ([9]; single IRI injection, over five days): modest body mass reduction
proliferative (BrdU+) cells per crypt in ileum, proximal colon and distal colon ([9]; single agent compared to vehicle or Inh9, 120 hours): significantly decreased
Proteobacteria and Gammaproteobacteria, Verrucomicrobia and Verrocumicrobiae levels (gut microbiota [10]; irinotecan alone or in combination with GUS inhibitor vs no irinotecan): significant increases
composition of the gut microbiota (gut microbiota [10]): sole driver of changes
effects on SN-38-G reactivation by in fimo samples (gut microbial enzymes): no longer detected
SN-38-G processing activity in the mouse cecum (in fimo samples) (gut microbial enzymes): significantly increased
increase in the levels of Proteobacteria (gut microbiota [11]; irinotecan, athymic xenograft mice): ten-fold increase
Bacteroidetes in lumenal contents, phylum level (gut microbiota [11]; single agent): 35%
Firmicutes in lumenal contents, phylum level (gut microbiota [11]; single agent): 16%
Proteobacteria in lumenal contents, phylum level (gut microbiota [11]; single agent): 46%
species diversity, Chao1 richness (gut microbiota [11]; single agent): significant drop
mice that developed late-onset, delayed diarrhea (SUM149 cells [13]): 50%
patients who develop diarrhea of all grades [14]: 88%
patients with life-threatening grade 3-4 diarrhea [14]: 30%
time to lethal intestinal toxicity [15]: ≤ 10 days
